Results published in ChEMBL document CHEMBL1146648, “Development of l-3-aminotyrosine suitably protected for the synthesis of a novel nonphosphorylated hexapeptide with low-nanomolar Grb2-SH2 domain-binding affinity” (Bioorg Med Chem Lett, 2004).
Where a SMILES comes first, the peptide text is derived from it. Bridges are numbered along the chain shown (N, C = ends). [ ]: non-standard residue; d: D form. Tyr(3-NH2) = Nc1cc(C[C@H](N)C(=O)O)ccc1O; Gla = N[C@@H](CC(C(=O)O)C(=O)O)C(=O)O; Aad = N[C@@H](CCCC(=O)O)C(=O)O; Ac6c = NC1(C(=O)O)CCCCC1; Ava = NCCCCC(=O)O

Molecular target: Growth factor receptor-bound protein 2 (Homo sapiens, UniProt P62993)
Sequence (P62993 whole entry): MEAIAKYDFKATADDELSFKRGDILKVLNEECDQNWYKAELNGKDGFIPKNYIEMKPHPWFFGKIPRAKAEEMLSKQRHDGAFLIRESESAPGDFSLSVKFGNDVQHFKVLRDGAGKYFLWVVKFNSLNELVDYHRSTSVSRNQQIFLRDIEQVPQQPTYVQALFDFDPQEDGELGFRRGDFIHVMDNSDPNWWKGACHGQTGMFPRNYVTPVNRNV
Test: Competitive binding affinity against Growth factor receptor bound protein 2 was assessed using SHC(pTyr-317) phospopeptide in biacore surface plasmon resonance (SPR) method

Q: Which IC50 does the source give for `CC(C)C[C@@H]1NC(=O)[C@H](CC(C(=O)O)C(=O)O)NC(=O)C[S+]([O-])C[C@@H](C(N)=O)NC(=O)CCCCNC(=O)[C@H](C(C)C)NC(=O)[C@H](CC(N)=O)NC(=O)C2(CCCCC2)NC(=O)[C@H](Cc2ccc(O)c(N)c2)NC1=O` (stereo partly specified) here?
A: 0.05 µM

Q: `CC(C)C[C@@H]1NC(=O)[C@H](CCCC(=O)O)NC(=O)C[S+]([O-])C[C@@H](C(N)=O)NC(=O)CCCCNC(=O)[C@H](C(C)C)NC(=O)[C@H](CC(N)=O)NC(=O)C2(CCCCC2)NC(=O)[C@H](Cc2ccc(O)cc2)NC1=O` (stereo partly specified) was tested. Which IC50 did it give?
A: 9.8 µM

Q: Which IC50 does the source give for `CC(C)C[C@@H]1NC(=O)[C@H](CCCC(=O)O)NC(=O)CSC[C@@H](C(N)=O)NC(=O)CCCCNC(=O)[C@H](C(C)C)NC(=O)[C@H](CC(N)=O)NC(=O)C2(CCCCC2)NC(=O)[C@H](Cc2ccc(O)cc2)NC1=O` ({CH2CO}-[Aad]LY[Ac6c]NV[Ava]C-NH2; thioether N-8) here?
A: 11.4 µM

Q: How did the IC50 turn out when `CC(C)C[C@@H]1NC(=O)[C@H](CC(C(=O)O)C(=O)O)NC(=O)CSC[C@@H](C(N)=O)NC(=O)CCCCNC(=O)[C@H](C(C)C)NC(=O)[C@H](CC(N)=O)NC(=O)C2(CCCCC2)NC(=O)[C@H](Cc2ccc(O)c(N)c2)NC1=O` ({CH2CO}-[Gla]L[Tyr(3-NH2)][Ac6c]NV[Ava]C-NH2; thioether N-8) was run?
A: 0.16 µM

Q: `CC(C)C[C@@H]1NC(=O)[C@H](CC(C(=O)O)C(=O)O)NC(=O)C[S+]([O-])C[C@H](C(N)=O)NC(=O)CCCCNC(=O)[C@H](C(C)C)NC(=O)[C@H](CC(N)=O)NC(=O)C2(CCCCC2)NC(=O)[C@H](Cc2ccc(O)c(N)c2)NC1=O` (stereo partly specified) was tested. Which IC50 did it give?
A: 1.08 µM

Q: How did the IC50 turn out when `CC(C)C[C@@H]1NC(=O)[C@H](CCCC(=O)O)NC(=O)C[S+]([O-])C[C@H](C(N)=O)NC(=O)CCCCNC(=O)[C@H](C(C)C)NC(=O)[C@H](CC(N)=O)NC(=O)C2(CCCCC2)NC(=O)[C@H](Cc2ccc(O)cc2)NC1=O` (stereo partly specified) was run?
A: 84.5 µM
